Structures can show the parent of a compound that is named as a salt.
Tests used:
ddY-strain male mice = test: Irwin's observation method (behavior, nervous, autonomic nervous and toxic symptoms); format: in vivo; conditions: 1,000 mg/kg or below, i.p.; vs control group
Source text: These mice were also observed for changes in behavior, nervous symptoms, autonomic nervous symptoms, and toxic symptoms in accordance with the Irwin's observation method.

[1] = system: motor activity enhanced by methamphetamine; test: Antagonistic effect against methamphetamine (automex method); format: in vivo, ddY-strain male mice; conditions: for Motor activity (total number of counts): 500 mg/kg i.p. + methamphetamine 3 mg/kg s.c.
Protocol: (§1) In Tests 1 to 4 given below, ddY-strain male mice (body weight 20-25 g) were used, and the experiments were carried out in a semi-soundproof, constant-temperature room kept at a temperature of 23±1° C. and a humidity of 55±2%. The mice were allowed to take feed and water freely.
Test 2: Antagonistic effect against methamphetamine (automex method)
Mice were used in 5-membered groups. Each of the test compounds was intraperitoneally administered to the mice in a predetermined dose, and immediately then, the mice were subcutaneously injected with methamphetamine in a dose of 3 mg/kg. The action of the test compounds on motor activity enhanced by methamphetamine was examined in accordance with the automex method given above.

[2] = system: sleeping induced by pentobarbital; test: Effect of prolonging the time of sleeping induced by pentobarbital; format: in vivo, ddY-strain male mice; conditions: pentobarbital sodium 50 mg/kg s.c.
Protocol: as §1
Test 3: Effect of prolonging the time of sleeping induced by pentobarbital
The effects of the test compounds on sleeping induced by pentobarbital were examined. The disappearance of righting reflex for 5 seconds or more was used as an index of sleeping. Mice were divided into 10-membered groups. Each of the test compounds was intraperitoneally administered to the mice in the doses indicated. Immediately then, pentobarbital sodium salt was subcutaneously injected into the mice in a dose of 50 mg/kg, and the sleeping time was compared with that of a group to which pentobarbital alone was injected (control).

[3] = system: electric convulsive shock-induced amnesia model; test: Effects on ECS-induced amnesia (step-down retention test); format: in vivo, ddY-strain male mice; conditions: for Escape learning latency (mean ± S.E.) / Step-down latency (mean ± S.E.): ECS 300 V, retention test 24 hours
Protocol: The test animals used were ddY-strain male mice (body weight 30-35 g). The experiment was carried out indoors at about 20° C., and the mice were allowed to take feed and water freely. 2. Effects on memorized behaviors A device comprised of a floor grid surrounded on four sides by acrylic glass walls each having a lateral dimension of 21 cm and a wooden platform, 4×4×4 cm in size, fixed centrally to the floor grid was placed in a wooden semi-soundproof box having a size of 21×21×40 cm with a […] electric bulb suspended from its ceiling. The floor grid consisted of stainless steel rods, 3 mm in diameter, arranged at intervals of 8 mm. An intermittent electric shock (1 Hz, 0.5 sec., 60 V DC) was applied to the grid by an electric impulse apparatus and an isolator. A mouse was placed in a predetermined direction on the platform. Immediately after the mouse stepped down onto the floor grid (when the mouse's four limbs left the platform), an electric shock was applied to the floor grid, and the intermittent application of the electric shock was continued until the mouse climbed up the platform to escape from the electric shock. The time which elapsed until the mouse stepped down from the platform (SDL, step down latency) and the time which elapsed until the mouse escaped to the platform from the electric shock (ELL, escape learning latency) were measured. […] By the same procedure as in the training test, a mouse was placed on the platform, and its step down latency (SDL) was measured. The cut-off time was 300 seconds. After the mouse stepped down, or the cut-off time elapsed, the mouse was placed on the floor grid at a corner of the device with its head directed in a direction opposite to the platform. An electric shock was applied to the mouse and its escape learning latency (ELL) was measured. Mice divided into groups each consisting of not less than 15 mice were subjected to the training test, and immediately then, ECS (300 V DC, 0.5 sec.) was applied to the mice through both ears. Twenty-four hours later, the mice were subjected to the retention test. Immediately after administration of CXM or application of ECS, a 0.9% normal saline solution of each of the test compounds was intraperitoneally administered to the mice. Separately, a 5% gum arabic solution of CXM was administered to the mice in a control group. […] But the mice recovered 1 to 2 minutes later.

**Q.** Which results are given for CC(O)(CCO)CC(=O)NCCCC(=O)O (stereo not drawn) [MV-GABA-Ca salt, calcium 4-(3,5-dihydroxy-3-methylpentylamide) butyrate]?
**A.** changes in behavior, nervous symptoms, autonomic nervous symptoms, and toxic symptoms (ddY-strain male mice): no marked difference from the control group could be found; Motor activity (total number of counts) ([1]; 5 minutes): 10 counts; Motor activity (total number of counts) ([1]; 10 minutes): 11 counts; Motor activity (total number of counts) ([1]; 15 minutes): 22 counts; Motor activity (total number of counts) ([1]; 20 minutes): 38 counts; Motor activity (total number of counts) ([1]; 25 minutes): 71 counts; Motor activity (total number of counts) ([1]; 30 minutes): 126 counts; antagonistic effect against the increase of motor activity induced by methamphetamine ([1]; 500 mg/kg, result in words): markedly inhibited the motor activity of mice enhanced by methamphetamine; Sleeping time ([2]; 1000 mg/kg i.p.): 62.7 ± 7.5 min; Sleeping time ([2]; 2000 mg/kg i.p.): 77.2 ± 5.2 min; Escape learning latency (mean ± S.E.) ([3]; 250 mg/kg i.p.): 12.8 ± 1.6 s; Step-down latency (mean ± S.E.) ([3]; 250 mg/kg i.p.): 104.6 ± 17.7 s; Escape learning latency (mean ± S.E.) ([3]; 500 mg/kg i.p.): 8.0 ± 1.1 s; Step-down latency (mean ± S.E.) ([3]; 500 mg/kg i.p.): 158.5 ± 21.7 s; prolongation of ELL (ECS) ([3]; 500 mg/kg, result in words): significantly improved the prolongation of ELL; Escape learning latency (mean ± S.E.) ([3]; 750 mg/kg i.p.): 6.7 ± 0.7 s; Step-down latency (mean ± S.E.) ([3]; 750 mg/kg i.p.): 215.2 ± 15.9 s; shortening of SDL and prolongation of ELL (ECS) ([3]; 750 mg/kg, result in words): significantly improved shortening of SDL and also the prolongation of ELL
